The numbers were not newly measured in patent publication US20100111874A1, “METHOD OF CANCER DETECTION AND TREATMENT” (University of Medicine and Dentistry of New Jresey, priority 2007, published 2010), which cites them from elsewhere.

The data set deals with human colon cancer xenografts. To be noted: combined with interferons; nude mice; cited from earlier work.

The structures appear in SMILES notation.

Consider `CCc1c2c(nc3ccc(OC(=O)N4CCC(N5CCCCC5)CC4)cc13)-c1cc3c(c(=O)n1C2)COC(=O)[C@]3(O)CC` [CPT-11], for which the “anticancer activity in combination with interferons” value is recorded as “synergistic”.
